Laboratory results as given in paper PMC5944259 (Evidence-based Complementary and Alternative Medicine : eCAM, 2018).
Like-named read-outs stand apart in the source and are kept apart here. One block for each molecule: values may come before it.

Columns and labels:
[1] = target: T1, Mammalian target of rapamycin (Homo sapiens, UniProt P42345); assay: Enzyme activity test mTOR (Lance ultra); type: biochemical
T1 construct: purchased Proteintech (Shanghai)
Procedure: (§1) As there were some kinase proteins in our protein database with different characteristics to other proteins, we used an enzyme activity test to validate the real interactions between the protein and molecule.
(§2) Selected pairs of protein and molecule participated in enzyme activity test, while electrophoretic mobility shirt assay (EMSA) and Lance ultra were conducted in an experiment with […] (100, 50, 25, 12.5, 6.25, 3.12, 1.56, 0.78, and 0.39 μmol/l). Finally, the IC50 (nM) value was used to assess the ability of a molecule to act or inhibit the protein.

[2] = cited from earlier work
Acetyl-CoA carboxylase 1 = target: T2, Acetyl-CoA carboxylase 1 (Homo sapiens, UniProt Q13085); assay: SPR assay ACC1; type: binding; conditions: for Offset / Rmax / χ^2: ACC1
T2 construct: purchased Proteintech (Shanghai)
Procedure: In the SPR test, the target proteins were first combined with the CM5 chip. After correction through standard solutions, a series of different concentrations of molecules (0, 2, 4, 8, 16, 32, 64, and 128 μmol/l) were tested for their binding to the protein. Finally, the affinity between the protein and molecule was determined by an array of parameters, such as the Kd values, Rmax, offset, and χ^2.

[3] = database annotation in words, no reference given; cited from earlier work
[4] = target: T3, Protein kinase C, beta type (Homo sapiens, UniProt P05771); assay: Enzyme activity test PKC-B (EMSA); type: biochemical
T3 construct: purchased Proteintech (Shanghai)
Procedure: as §1, §2

[5] = target: T4, Rho-associated protein kinase 1 (Homo sapiens, UniProt Q13464); assay: Enzyme activity test ROCK1 (EMSA); type: biochemical
T4 construct: purchased Proteintech (Shanghai)
Procedure: as §1, §2

[6] = target: T5, Superoxide dismutase [Mn] (Homo sapiens, UniProt P04179); assay: SPR assay SOD2; type: binding
T5 construct: purchased Sino Biological (Shanghai)
T5 sequence (P04179 25-222): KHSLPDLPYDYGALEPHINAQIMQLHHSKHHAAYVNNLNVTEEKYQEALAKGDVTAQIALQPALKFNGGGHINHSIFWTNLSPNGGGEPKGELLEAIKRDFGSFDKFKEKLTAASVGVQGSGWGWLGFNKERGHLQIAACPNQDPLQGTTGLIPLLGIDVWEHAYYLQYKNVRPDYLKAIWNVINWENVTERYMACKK

[7] = database annotation in words, no reference given; cited from earlier work; remark: listed apart in the source

T4 sequence (Q13464 whole entry): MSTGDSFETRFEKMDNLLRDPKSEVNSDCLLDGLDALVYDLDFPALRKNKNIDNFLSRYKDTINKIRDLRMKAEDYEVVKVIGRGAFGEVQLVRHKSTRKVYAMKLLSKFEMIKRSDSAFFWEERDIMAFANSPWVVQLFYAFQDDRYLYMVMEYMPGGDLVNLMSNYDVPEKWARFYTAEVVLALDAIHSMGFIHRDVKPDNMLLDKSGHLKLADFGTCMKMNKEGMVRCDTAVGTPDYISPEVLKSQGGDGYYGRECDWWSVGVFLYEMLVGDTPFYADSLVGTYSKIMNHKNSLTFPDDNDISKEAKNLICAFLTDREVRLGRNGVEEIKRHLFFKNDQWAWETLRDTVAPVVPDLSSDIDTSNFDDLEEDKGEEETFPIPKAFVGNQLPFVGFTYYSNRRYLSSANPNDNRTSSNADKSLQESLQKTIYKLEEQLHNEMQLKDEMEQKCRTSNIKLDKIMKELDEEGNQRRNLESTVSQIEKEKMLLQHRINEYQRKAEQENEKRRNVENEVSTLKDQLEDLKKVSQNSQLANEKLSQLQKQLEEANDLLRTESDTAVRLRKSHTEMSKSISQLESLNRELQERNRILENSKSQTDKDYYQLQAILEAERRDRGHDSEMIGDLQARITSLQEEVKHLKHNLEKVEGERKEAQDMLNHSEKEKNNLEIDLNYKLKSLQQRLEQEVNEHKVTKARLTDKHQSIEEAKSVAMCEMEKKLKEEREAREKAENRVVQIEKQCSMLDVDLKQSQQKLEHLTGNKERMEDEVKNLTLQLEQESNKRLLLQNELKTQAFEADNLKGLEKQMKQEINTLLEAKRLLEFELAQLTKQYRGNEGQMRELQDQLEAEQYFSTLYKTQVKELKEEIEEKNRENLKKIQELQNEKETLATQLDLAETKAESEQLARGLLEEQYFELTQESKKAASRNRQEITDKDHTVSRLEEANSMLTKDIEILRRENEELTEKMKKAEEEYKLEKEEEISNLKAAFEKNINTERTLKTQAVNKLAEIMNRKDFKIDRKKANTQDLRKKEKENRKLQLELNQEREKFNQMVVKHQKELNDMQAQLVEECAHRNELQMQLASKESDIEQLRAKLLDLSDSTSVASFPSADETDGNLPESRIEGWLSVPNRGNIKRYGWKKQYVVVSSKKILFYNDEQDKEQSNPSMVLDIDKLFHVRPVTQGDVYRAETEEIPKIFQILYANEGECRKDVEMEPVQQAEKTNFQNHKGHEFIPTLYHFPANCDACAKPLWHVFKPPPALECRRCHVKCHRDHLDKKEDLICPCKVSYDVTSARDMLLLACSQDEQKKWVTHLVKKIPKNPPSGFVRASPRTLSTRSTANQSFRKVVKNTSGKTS
T3 sequence (P05771 whole entry): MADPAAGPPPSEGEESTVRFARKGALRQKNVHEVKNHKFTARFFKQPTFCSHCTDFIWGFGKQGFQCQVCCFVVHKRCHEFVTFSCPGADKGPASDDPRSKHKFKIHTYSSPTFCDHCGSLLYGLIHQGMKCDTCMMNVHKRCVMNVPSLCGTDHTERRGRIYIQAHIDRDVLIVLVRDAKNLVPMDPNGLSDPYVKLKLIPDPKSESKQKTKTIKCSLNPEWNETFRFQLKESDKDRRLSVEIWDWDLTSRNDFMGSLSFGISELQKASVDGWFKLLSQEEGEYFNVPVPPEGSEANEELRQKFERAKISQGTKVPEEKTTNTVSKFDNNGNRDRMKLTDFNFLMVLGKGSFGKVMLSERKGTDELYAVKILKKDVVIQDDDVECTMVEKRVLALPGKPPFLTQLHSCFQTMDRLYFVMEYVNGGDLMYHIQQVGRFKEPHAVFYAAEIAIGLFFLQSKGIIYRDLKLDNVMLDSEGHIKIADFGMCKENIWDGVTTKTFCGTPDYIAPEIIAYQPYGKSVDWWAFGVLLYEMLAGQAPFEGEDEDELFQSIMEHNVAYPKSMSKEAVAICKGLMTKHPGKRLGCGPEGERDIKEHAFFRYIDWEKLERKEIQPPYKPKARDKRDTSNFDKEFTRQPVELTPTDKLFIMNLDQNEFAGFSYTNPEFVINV

Molecule: CC(C)(O)[C@@H]1CC[C@](C)([C@H]2[C@@H](O)C[C@@]3(C)[C@@H]4C[C@H](O[C@@H]5O[C@H](CO)[C@@H](O)[C@H](O)[C@H]5O)[C@H]5C(C)(C)[C@@H](O[C@@H]6OC[C@@H](O)[C@H](O)[C@H]6O)CC[C@@]56C[C@@]46CC[C@]23C)O1 [Astragaloside IV]
- IC50 [1]: > 10 µM
- absorbed in blood after the oral administration of GDC [2]: could be absorbed in blood
- Kd (Acetyl-CoA carboxylase 1): 92.5 µM
- Offset (Acetyl-CoA carboxylase 1; SPR): 0.2424 RU
- Rmax (Acetyl-CoA carboxylase 1; SPR): 7.856 RU
- χ^2 (Acetyl-CoA carboxylase 1; SPR): 0.0243 RU^2
- 作用药理 (pharmacological action) [3]: 诱导TNF-α分泌，降低直接作用+作用于肝糖调节酶+通过上调Sarco/内质网Ca2 + -ATP酶2的表达。抑制足细胞介导的细胞凋亡的内质网应激

- IC50 [4]: > 10 µM
- Offset (Acetyl-CoA carboxylase 1; SPR): −0.2651 RU
- Rmax (Acetyl-CoA carboxylase 1; SPR): 2.204 RU
- χ^2 (Acetyl-CoA carboxylase 1; SPR): 0.0962 RU^2
- Kd (Acetyl-CoA carboxylase 1; SPR, ACC1 on CM5 chip, read-out: Kd): 13.6 µM
- IC50 [5]: > 10 µM
Molecule: COC(=O)C1=CO[C@@H](O[C@@H]2O[C@H](CO)[C@@H](O)[C@H](O)[C@H]2O)[C@@H]2[C@H](C)O[C@@H](O)C[C@H]12 [Morroniside]
- absorbed in blood after the oral administration of GDC [2]: could be absorbed in blood

Molecule: C[C@@H]1O[C@@H](OC[C@H]2O[C@@H](Oc3c(-c4ccc(O)c(O)c4)oc4cc(O)cc(O)c4c3=O)[C@H](O)[C@@H](O)[C@@H]2O)[C@H](O)[C@H](O)[C@H]1O [Rutin]
- absorbed in blood after the oral administration of GDC [2]: could be absorbed in blood

- Offset ([6]; SOD2): −3.611 RU
- Rmax ([6]; SOD2): 14.3 RU
- χ^2 ([6]; SOD2): 2.11 RU^2
- Kd ([6]; SOD2 on CM5 chip): 5.08 µM
Molecule: COc1c(O)cc(O)c2c(=O)cc(-c3ccccc3)oc12 [Wogonin]

Molecule: OC[C@H]1O[C@@H](O[C@@H]2OC=C[C@H]3[C@H](O)[C@@H]4O[C@]4(CO)[C@@H]23)[C@H](O)[C@@H](O)[C@@H]1O [catalpol / catalpinoside]
- 作用药理 (pharmacological action) [3]: 有降糖作用
- stability remark (acid, base, high temperature) [7]: 酸碱高温下可分解，分解后变黑

Molecule: COc1cc(C(=O)OCCCCNC(=N)N)cc(OC)c1O [leonurine]
- 作用药理 (pharmacological action) [3]: 抗血小板作用

Molecule: astragalosideⅤ
- 作用药理 (pharmacological action) [3]: 阻碍羧甲基赖氨酸、戊糖苷形成，抑制糖尿病视网膜病变、神经病变进程

Molecule: stachyose
- 作用药理: side effect [3]: 胀气副作用，炮制可减少水苏糖的量
